# Assay results as given in patent US8975259B2, “Compositions and methods for inhibiting G protein signaling” (University of Rochester, priority 2007, dated 2015).
# Where two headings read alike, the source gives them in different places.
# Target: Gβ1γ2 (UniProt P54311+P63212)
# Assay: Competition phage ELISA: inhibition of SIGK-phage binding to immobilized biotinylated Gβ1γ2
# Parameters: made in house; host or cells: Sf9 insect cells (baculovirus; co-expressed with BirA and (His)6-Gαi1, from which βγ was eluted); species or system rat
# Conditions: for binding to the G protein β subunit: result in words
# Experimental: Phage ELISA assays used to assess peptide binding to wild-type and mutant b-βγ were performed according to standard methods (Smrcka and Scott (2002) Methods Enzymol. 344:557-76). Briefly, 1 μg streptavidin was immobilized in the well of a […] overnight at 4° C. The wells were blocked with 100 μL of 2% bovine serum albumin (BSA) in Tris-buffered saline (TBS) for 1 hour at 4° C. followed by three washes of IX TBS/0.5% TWEEN®. […] The wells were washed, followed by the addition of IxIO^6 to IxIO^10 phage particles and incubated at 4° C. for 3 hours. The wells were then washed six times with TBS/0.5% TWEEN® followed by addition of 40 μL of 1:5000 dilution of anti-M13 antibody (Pharmacia, Uppsala, Sweden) and incubated at room temperature for 1 hour. The wells were washed, followed by the addition of 40 μL of (2,2′-Azino-bis (3-ethylbenzthiazoline)-6-sulfonic acid (ABTS) and the colorimetric reaction was monitored at 405 nm. Nonspecific binding was subtracted for each reading.
# A phage ELISA assay was used to determine whether small molecules identified in the computational screen could interact with the Gβy protein interaction surface. […] The screen was based on a reduction in the optical density (OD) of wells containing Gβγ subunits and phage. […] Three background wells contained no βy subunits.
# As disclosed herein, biotinylated Gβy subunits were immobilized on the surface of a 96-well plate coated with streptavidin, phage displaying Gβγ-binding peptides were subsequently added and binding in the presence and absence of test compounds detected with an anti-phage antibody.
# The phage ELISA assay was used to rapidly screen the ability of compounds to bind to the protein interaction “hot spot” based on the method of Scott et. al (Scott et al., 2001). This assay is performed in the presence of detergent (0.5% Tween) to eliminate non-specific compound aggregation artifacts.
# Compounds/DMSO and 0.1×10^10 phage were added simultaneously and subsequently incubated for 1 h at room temperature. Plates were then washed with 1× Tris-buffered saline/0.5% Tween 20 and incubated with anti-M13, HRP-conjugated antibody (Amersham, Chalfont St. Giles, Buckinghamshire, UK). Phage binding was determined by monitoring A405 upon addition of 2,2′-azino-bis(3-ethylbenzothiazoline-6-sulfonic acid) (Sigma Aldrich).
# [1] = Table 18, compounds identified in Elisa screen, read-out: IC50
molecule,measurement,setting,value
O=C(O)/C=C/c1c2ccc(=O)cc-2oc2cc(O)ccc12 [(E)-3-(6-hydroxy-3-oxo-3H-xanthe-9-yl)acrylic acid],binding to the G protein β subunit,,Neither of these compounds showed any binding
Nc1ccc(-c2ccc(Nc3cc(S(=O)(=O)O)c(N)c4c3C(=O)c3ccccc3C4=O)cc2)c(S(=O)(=O)O)c1 [Compound M125],IC50,"Table 8, read-out: IC50",68 µM
same,IC50,[1],18 µM
O=C(O)c1ccccc1-c1c2ccc(=O)c(O)c-2oc2c(O)c(O)ccc12,IC50,Table 6,0.2 µM
O=C(O)CCc1c2ccc(=O)cc-2oc2cc(O)ccc12 [3-(6-hydroxy-3-oxo-3H-xanthen-9-yl)propionic acid],binding to the G protein β subunit,,Neither of these compounds showed any binding
Nc1c(S(=O)(=O)O)cc(Nc2cccc(S(N)(=O)=O)c2)c2c1C(=O)c1ccccc1C2=O [drawing 50],IC50,"Table 2, read-out: Elisa IC50",56 µM
O=C(O)c1cccc2cccc(-c3c4ccc(=O)c(O)c-4oc4c(O)c(O)ccc34)c12 [drawing 108],IC50,Table 6,0.15 µM
"O=C(O)CCc1c2ccc(=O)c(O)c-2oc2c(O)c(O)ccc12 [3-(4,5,6-trihydroxy-3-oxo-3H-xanthen-9-ylpropanoic acid]",IC50,"kind of constant not stated, read-out: binding to the G protein β subunit",2.5 µM
"7-methyl-3-(4,5,6-trihydroxy-3-oxo-3H-xanthen-9-yl)bicyclo[2.2.1]hept-5-ene-2-carboxylic acid",IC50,"kind of constant not stated, read-out: binding to the protein interaction site of the β subunit of a G protein",0.7 µM
Nc1ccc(-c2ccc(Nc3cc(S(=O)(=O)O)c(N)c4c3C(=O)c3ccccc3C4=O)cc2)c(S(=O)(=O)O)c1 [drawing 54],IC50,"Table 2, read-out: Elisa IC50",18 µM
Nc1c(S(=O)(=O)O)cc(Nc2cccc(S(N)(=O)=O)c2)c2c1C(=O)c1ccccc1C2=O [Compound M117],IC50,"Table 8, read-out: IC50",43 µM
same,IC50,[1],56 µM
O=C1C=CC2C(=C1O)Oc1c(ccc(O)c1O)/C2=C\C=C(O)O (stereo not drawn),IC50,Table 6,0.2 µM
Cc1c2ccc(=O)cc-2oc2cc(O)ccc12 [6-hydroxy-9-methyl-3H-xanthen-3-one],binding to the G protein β subunit,,not to bind
CNc1ccc(Nc2cc(S(=O)(=O)O)c(N)c3c2C(=O)c2ccccc2C3=O)cc1,IC50,"Table 2, read-out: Elisa IC50",59 µM
